Where a SMILES comes first, the peptide text is derived from it. The star is where a group is joined. Cbz = O=C(OCc1ccccc1)*; CHN2 = [N-]=[N+]=C*; tBu = CC(C)(C)*
Experiments:
Flt3L-DCs = assay: Cross-priming capacity of Flt3L-DCs pre-treated with CA-074 and/or cathepsin L inhibitor III, co-cultured with necrotic B16-OVA (IFN-γ production); type: cell-based, mouse; conditions: 5 μg/ml inhibitor for 2 h, necrotic B16-OVA 16 h, OT-I cells 3 days, FIG. 12F
Experimental: (§1) For cross-presentation of tumor neoantigen, CD11b^+ or CD8^+ DC were purified from draining lymph node of WT or Ythdf1^−/− mice six days after inoculating with B16-OVA, MC38-OTIp or MC38-EGFR-SIY. OT-I or 2C naive CD8^+ T cells were isolated from lymph nodes and spleen of 6 to 12-week-old mice. Negative selection was carried out with a negative CD8 isolation kit (StemCell Technologies, Inc.) following manufacturer's instruction. DCs were co-cultured with OT-1 naive CD8 T cells at the ratio of 1:10 for three days with or without 1 μg/ml SIINFEKEL peptide. For cross-presentation of soluble OVA, splenic DCs were sorted and stimulated with 100 ng/ml LPS overnight. DCs were then pulsed with different concentration of OVA (endotoxin free, Sigma) for 5 hours. Cells were washed and co-cultured with OT-I naive CD8^+ T cells for three days. For in vitro cross-presentation of tumor neoantigen, Flt3L-DCs were collected on day 9-10 and co-cultured with necrotic B16-OVA tumor cells overnight. B220^−CD11c^+ cells were subsequently purified. […] IFN-T production was detected by IFN-γ Flex Set CBA assay (BD Bioscience). […] The cross-priming capacity of DC was analyzed by the dilution of CTV in CD8^+ T cells. […] The cross-priming capacity of DCs was then evaluated by the IFN-γ production. […]

wild-type DCs = assay: Cross-priming capacity of wild-type DCs pre-treated with cathepsin inhibitor E64 (ex vivo cDCs, CTV dilution; GMDCs, IFN-γ CBA); type: cell-based, mouse; conditions: E64 0.04 μM (ex vivo cDCs, OVA protein) or 0.2-2 μM (GMDCs, B16-OVA); OT-I T cells; FIGS. 12D-12E
Experimental: as §1

B16-OVA tumors = assay: Cathepsin blockade in vivo: B16-OVA tumor growth after intratumoral E64; parameters: species or system mouse; conditions: WT mice, s.c. B16-OVA, E64 intratumorally (5 μM or 50 μM) on day 11; FIG. 4B
Experimental: About 1×10^6 B16-OVA or MC38 tumor cells were injected s.c. into the flank of mice. Tumor volumes were measured by length (a) and width (b) and calculated as tumor volume=ab^2/2. Mice with tumor volumes less than 200 mm^3 are considered to be survival. For in vivo depletion experiments, 200 μg of anti-CD8 antibody (clone YTS169.4) or anti-NK1.1 (clone PK136) was injected i.p. three days after tumor inoculation. To block cathepsins in vivo, mice were inoculated with 1×10^6 B16-OVA cells. On day 11, mice with established tumors were treated with E64 intratumorally. For anti-PDL1 treatment, 1×10^6 B16-OVA tumor cells were s.c. injected into the flank of mice. Tumors were allowed to grow for seven days and treated i.p. by anti-PDL1 (clone10F.9G2) or Rat Ig. Tumor-free mice after treatment were monitored over time and the percentage of tumor-regression was calculated. To block IFNγ, tumor-bearing mice were treated with 50 μg anti-IFNγ mAb (clone XMG1.2) intratumorally and PD-L1 expression on tumor cells was evaluated by flow cytometry. All antibodies were ‘InVivoMAb’ from BioXCell. For adoptive transfer of T cells. Rag mice were inoculated with 5×10^5 B16-OVA on day 0. On the same day, T cells were purified from WT or Ythdf1^−/− mice using T cell negative isolation Kit (STEM CELL). 5×10^6 T cells were intravenously (i.v.) injected into Rag2^−/− mice.

Compound	efficiency of cross-priming in wild-type DCs (Flt3L-DCs)	efficiency of cross-priming in wild-type DCs (wild-type DCs)	in vivo antitumor response (B16-OVA tumors)
CCCNC(=O)[C@H]1O[C@@H]1C(=O)N[C@H](C(=O)N1CCC[C@H]1C(=O)OC)[C@@H](C)CC [CA-074]	notably enhanced	–	–
CC(C)(C)Oc1ccc(C[C@H](NC(=O)[C@H](Cc2ccccc2)NC(=O)OCc2ccccc2)C(=O)C=[N+]=[N-])cc1 [cathepsin L inhibitor III] (Cbz-Phe-Tyr(tBu)-CHN2)	notably enhanced	–	–
CC(C)C[C@H](NC(=O)[C@H]1O[C@@H]1C(=O)O)C(=O)NCCCCN=C(N)N [E64]	–	notably enhanced	markedly improved

Source: patent US20220025004A1, “COMPOSITIONS AND METHODS RELATED TO SITE-SPECIFIC IDENTIFICATION OF RNA MODIFICATIONS” (The University of Chicago, priority 2018, published 2022)
